For one data set, the system named is H9c2 cells. The experiment in a line: H2O2-induced cell death in H9c2 cells. The data set is classed as cell-based, rat. The conditions noted are these: chelator pretreatment, then H2O2. On the procedure:
(§1) H9c2 cardiomyoblasts were cultured in DMEM (ATCC) supplemented with 10% FBS (Thermo) and Penicillin/Streptomycin (Cellgro). HEK293T cells were cultured in MEM (Cellgro) supplemented with 10% FBS, sodium pyruvate (Cellgro) and Penicillin/Streptomycin. Unless otherwise specified, cells were treated with 200 μM of DFO or 100 μM of BPD for two hours when indicated prior to addition of 600 μM of H2O2 when indicated for 6 hours. RNA isolation and qRT-PCR RNA was isolated using RNA-STAT60 (Tel-Test) according to the manufacturer's instructions, and subjected to DNAse I (Ambion) digestion to remove residual DNA. Purified RNA was then reverse transcribed with Random Hexamer and Oligo dT(16) (Applied Biosystems) and amplified on a 7500 Fast Real-Time PCR system using Fast SYBR Green PCR Master Mix (Applied Biosystems). mRNA levels were calculated based on the difference of threshold Ct values in target gene and average Ct values of 18s, Actb, B2m, and Hprt in the same sample.
For in vitro studies, cells were resuspended in 1× Annexin V buffer (BD) and then stained with Alexa Fluor 350 conjugated Annexin V (Life Technology) and propidium iodide (Sigma) according to the manufacturer's instructions and analyzed on a LSRII flow cytometer (BD).

Data set [1] has as its system mitochondrial aconitase, complex I, II and IV. Briefly: Mitochondrial enzyme and complex activities in H9c2 cells. It is filed as cell-based, rat. The conditions noted are these: chelator pre-treatment, then H2O2. On the procedure: as §1
Mitochondria were isolated from cells as described above. Mitochondrial complex I, II and IV activity was measured as described previously (Spinazzi et al., 2012). Aconitase activity was measured using Aconitase Activity Microplate Assay Kit (Abcam). Citrate synthase activity was measured from the same sample using Citrate Synthase Activity Kit (BioVision) and was used to normalize the mitochondrial complex activity.

The test system of data set [2] is cardiac-specific ABCB8 knockout mice. Briefly: Spontaneous cardiomyopathy in cardiac-specific ABCB8 knockout mice. The data set is classed as in vivo. From the text: We next took a loss-of-function approach, and studied whether a decrease in mitochondrial iron in cardiac-specific ABCB8 knockout mice, a model of spontaneous cardiomyopathy with mitochondrial iron overload (Ichikawa et al., 2012), protects against cardiac tissue damage. […] Mitochondrial iron in ABCB8 flox/flox (LoxP sequence flanking exon one of both alleles of ABCB8) mice with or without the αMHC-MER-Cre-MER transgene was modulated with BPD or vehicle control for one week before the induction of ABCB8 deletion with tamoxifen. BPD treatment continued until four weeks after the completion of tamoxifen treatment, at which point mitochondrial iron and cardiac function were measured. The effectiveness of Cre-mediated gene excision was confirmed at the protein level (FIG. 15). […] These findings indicate that prevention of mitochondrial iron accumulation through a pharmacological approach delays the development of cardiomyopathy in an animal model of mitochondrial iron accumulation.
Cardiomyocyte-specific ABCB8 transgenic mice were generated as described previously (Ichikawa et al., 2014) and backcrossed for at least 8 generations. Mice with both alleles of ABCB8 floxed (ABCB8f/f) were crossed to α-MHC MER-Cre-MER mice, and the first generation is back-crossed with ABCB8f/f mice to generate ABCB8f/f mice with or without α-MHC MER-Cre-MER transgene. Tamoxifen-induced Cre translocation and deletion of ABCB8 in the heart was achieved using a previously described protocol (Ichikawa et al., 2012). All animal studies were approved by the Institutional Animal Care and Use Committee at Northwestern University and were performed in accordance with guidelines from the National Institutes of Health.
Mice were treated with 80 mg/kg BPD (Sigma) in normal saline solution daily or 50 mg/kg DFO (Sigma) in normal saline every other day via intraperitoneal injection. The dose of BPD was chosen based on its ability to modulate cardiac mitochondrial iron, and the dose of DFO was chosen according to previously published studies (Ichikawa et al., 2014). BPD was prepared as a 400 mg/ml stock solution in ethanol and diluted 1:100 in normal saline to working concentration. DFO was prepared as a 250 mg/ml stock in water and diluted 1:100 in normal saline to working concentration.
Parasternal short- and long-axis views of the heart were obtained using a Vevo 770 high-resolution imaging system with a 30 MHz scan head. 2D and M-mode images were obtained and analyzed. Ejection fraction was calculated from M mode image using Teichholtz equation, and fractional shortening was directly calculated from end-systolic and end-diastolic chamber size from M-mode images.
Tissue iron was measured colorimetrically by the formation of a complex with bathophenanthroline disulfonate or ferene-S as described previously (Ichikawa et al., 2012; Khechaduri et al., 2013). For qualitative measurement of mitochondrial labile iron, cells were stained with Rhodamine B-[1,10-phenanthrolin-5-yl)-aminocarbonyl]benzyl ester (RPA) (Squarix) and mitoTracker Green (Invitrogen). Images were obtained on a Zeiss AxioObserver.Z1 microscope. Quantitative measurement of labile iron was done according to previously described methods (Cabantchik et al., 1996; Petrat et al., 2002b). Briefly, cells were stained with RPA and mitoTracker Green for mitochondrial labile iron measurement and calcein (Invitrogen) and Hoechst 33342 (Invitrogen) for cytosolic labile iron measurement. Fluorescence intensity was measured using Gemini XS plate reader (Molecular Device) with following excitation emission setting: ex/em 490 nm/520 nm for mitoTracker Green and calcein, 564 nm/601 nm for RPA, and 350 nm/461 nm for Hoechst 33342. After initial measurement, 2 mM of PIH (Abcam) was added to each well and fluorescence signal was measured again. […]

Each structure is given as a SMILES string. “Also recorded” adds a separate entry of the source.

Take `c1ccc(-c2ccccn2)nc1` [BPD, 2,2′-bipyridyl]: in the data set with H9c2 cells, the H2O2-induced cell death result is given as “significantly reversed H2O2-induced cell death; also recorded: protected cells against H2O2 induced cell death”. Besides, the “activities of mitochondrial aconitase, complex I, II and IV after H2O2 treatment” value in data set [1] is “protected the activities of mitochondrial aconitase, complex I, II and IV after H2O2 treatment”. Further, in data set [2] (BPD from 1 week before deletion until 6 weeks after deletion, read at 6 weeks after deletion), the “cardiac function in ABCB8 knockout mice” value was “preserved cardiac function”. Further, in data set [2] (Cre+ (KO) mice, BPD from one week before tamoxifen until four weeks after tamoxifen), the “mitochondrial iron accumulation in ABCB8 KO mice” value was “prevented the development of iron accumulation”. In addition, in data set [2] (Cre- (WT) mice, same BPD regimen), the “mitochondrial iron in Cre- (WT) mice” value was “resulted in a decrease in mitochondrial iron”. Moreover, the “cardiotoxicity of the treatment itself” value in data set [2] (WT mice, same BPD regimen) was “not cardiotoxic”. Moreover, the “lipid peroxidation products in ABCB8 KO mice” value in data set [2] (chelator-treated ABCB8 KO mice) is “attenuated the increase”. Further, the “cardiac function (ejection fraction, fractional shortening) in ABCB8 KO mice” value in data set [2] (four weeks after completion of tamoxifen treatment) is reported as “preserved cardiac function”. Further, the “expression of Nppa, Nppb and Myh7 in ABCB8 KO mice” value in data set [2] (four weeks after tamoxifen) is “attenuated expression of Nppa, Nppb and Myh7”.

(Values after patent US10258612B2, “Mitochondrial lipid permeable iron chelators for treating and preventing ischemia/reperfusion (I/R) injury in the heart following an ischemic event” (Northwestern University, priority 2015, dated 2019).)
